Laboratory results taken from patent US20240174744A1, “METHODS OF TREATMENT USING PROTEIN BINDERS TO IRHOM2 EPITOPES” (SCIRHOM GMBH, priority 2021, published 2024).

Legend:
[1] = test system: PMA-induced release of HB-EGF from THP-1 cells; assay: ELISA-based HB-EGF release assay, PMA-stimulated THP-1 cells; format: cell-based; conditions: Homo sapiens, murine (m) and chimeric (ch) antibodies 3 μg/ml, Batimastat 10 μM, PMA 25 ng/ml, 6 hours
Protocol: In the following study, ELISA-based HB-EGF release assays were performed to analyze the inhibitory effects of the antibodies of the present disclosure on PMA-induced release of endogenous HB-EGF from human THP-1 monocytic cells.
In brief, on day 1, Nunc black MaxiSorp® 96-well plates (Thermo Fisher Scientific, USA) were coated for 7 hours with 100 μl per well of rat anti-human HB-EGF capture antibody (provided as part of the DuoSet ELISA kit) at 2 μg/ml TBS at room temperature. Capture antibody solution was removed and MaxiSorp® plates were blocked with 300 μl per well of TBS, 1% BSA at room temperature for 3 hours. […]
Subsequently, cells (except those for unstimulated controls) were stimulated with 20 μl per well of PMA (Sigma-Aldrich, USA) at 150 ng/ml in growth medium for a final concentration of 25 ng/ml at 37° C., 5% CO2 for 6 hours. […] Using an infinite M1000 (Tecan Group, Switzerland) microplate reader, the fluorescence of each well was collected at an excitation wavelength of 435 nm and an emission wavelength of 555 nm.

[2] = test system: PMA-induced release of HB-EGF from U-937 cells; assay: ELISA-based HB-EGF release assay, PMA-stimulated U-937 cells; format: cell-based; conditions: Homo sapiens, murine (m) and chimeric (ch) antibodies 3 μg/ml, Batimastat 10 μM, PMA 25 ng/ml, 6 hours
Protocol: Complementary to Example 29 described above, ELISA-based HB-EGF release assays were performed to verify the inhibitory effects of the antibodies of the present disclosure on PMA-induced release of endogenous HB-EGF from human U-937 cells.
The production of the recombinant antibody material that was used in this example is identical to the one described in Example 25. The ELISA-based HB-EGF release assay that was used in this example is identical with the one described in Example 30, with the only difference, that U-937 (European Collection of Authenticated Cell Cultures, UK) cells were used instead of THP-1 (American Type Culture Collection, USA) cells.

SMILES: CNC(=O)[C@H](Cc1ccccc1)NC(=O)[C@H](CC(C)C)[C@H](CSc1cccs1)C(=O)NO [Batimastat]
- inhibition at 10 µM [1]: 98.9%
- inhibition at 10 µM [2]: 100%
